Read-outs that look alike come from different tables or passages of the source.
Tests used:
wild-type EGFR = biological target: T1, wild-type EGFR (Homo sapiens, UniProt P00533); assay: Enzymology experiment in vitro (HTRF/FRET kinase activity), wild-type EGFR; format: biochemical; details: HTRF KinEASE-TK, read-out: EGFR (WT) IC50
T1 construct: purchased Signalchem
Procedure: (§1) 1. Experimental Materials
(§2) HTRF KinEASE-TK kit detection reagent, purchased from Cisbio
(§3) 1) 10 nL of gradient diluted compound was transferred into a 384-well experimental plate using Echo 550 (Labcyte).
(§4) 2) 5 μL of 2×EGFR enzyme solution was added to the 384-well experimental plate and incubated at room temperature for 10 minutes.
(§5) 3) 5 μL of 2× substrate solution containing polypeptide and ATP was added to the 384-well experimental plate and incubated at room temperature for 40 minutes.
(§6) 4) 10 μL of detection solution containing EDTA, XL665-labeled streptavidin and Eu^3+-labeled antibody was added thereto and incubated at room temperature for 1 hour.

[1] = biological target: T2, L858R/T790M/C797S triple mutant EGFR (Homo sapiens, UniProt P00533, C797S/L858R/T790M); assay: Enzymology experiment in vitro (HTRF/FRET kinase activity), L858R/T790M/C797S triple mutant EGFR; format: biochemical; details: HTRF KinEASE-TK, read-out: EGFR (L858R/T790M/C797S) IC50
T2 construct: purchased Signalchem
T2 sequence (P00533 25-1210 T790M/C797S/L858R): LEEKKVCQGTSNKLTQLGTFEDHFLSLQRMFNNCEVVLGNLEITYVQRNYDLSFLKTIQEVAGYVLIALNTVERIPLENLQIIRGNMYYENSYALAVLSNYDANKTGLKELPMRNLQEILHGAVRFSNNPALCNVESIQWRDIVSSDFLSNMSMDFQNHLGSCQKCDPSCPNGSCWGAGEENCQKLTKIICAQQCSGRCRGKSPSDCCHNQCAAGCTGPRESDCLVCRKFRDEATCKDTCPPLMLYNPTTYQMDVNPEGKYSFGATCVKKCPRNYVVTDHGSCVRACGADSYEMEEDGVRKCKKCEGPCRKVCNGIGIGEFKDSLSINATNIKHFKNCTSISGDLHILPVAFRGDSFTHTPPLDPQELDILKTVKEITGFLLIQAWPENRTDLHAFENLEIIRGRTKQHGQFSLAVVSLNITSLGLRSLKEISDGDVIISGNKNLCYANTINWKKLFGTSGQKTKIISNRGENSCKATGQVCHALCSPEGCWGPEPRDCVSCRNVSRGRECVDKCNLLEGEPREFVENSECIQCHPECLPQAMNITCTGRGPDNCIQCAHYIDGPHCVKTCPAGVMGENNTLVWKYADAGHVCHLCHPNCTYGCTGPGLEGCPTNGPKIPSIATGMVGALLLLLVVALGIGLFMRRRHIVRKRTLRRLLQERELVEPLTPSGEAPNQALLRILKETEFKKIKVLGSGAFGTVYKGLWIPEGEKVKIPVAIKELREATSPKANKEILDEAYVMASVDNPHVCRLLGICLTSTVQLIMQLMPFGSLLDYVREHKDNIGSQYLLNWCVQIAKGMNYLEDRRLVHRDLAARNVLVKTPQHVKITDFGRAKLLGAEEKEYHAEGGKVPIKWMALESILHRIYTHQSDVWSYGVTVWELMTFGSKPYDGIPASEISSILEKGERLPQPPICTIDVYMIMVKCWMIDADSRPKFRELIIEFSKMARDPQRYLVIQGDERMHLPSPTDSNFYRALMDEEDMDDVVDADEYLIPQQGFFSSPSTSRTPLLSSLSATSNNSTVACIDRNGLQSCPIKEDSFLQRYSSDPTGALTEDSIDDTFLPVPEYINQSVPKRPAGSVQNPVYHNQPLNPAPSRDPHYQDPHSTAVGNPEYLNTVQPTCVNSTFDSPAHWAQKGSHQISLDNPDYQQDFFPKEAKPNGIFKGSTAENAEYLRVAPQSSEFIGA
Procedure: as §1, §2, §3, §4, §5, §6

[2] = system: EGFR wild-type cell line A431; assay: Cell proliferation inhibition experiment (CellTiter-Glo), A431; format: cell-based; details: A431 cells, Cell Titer-Glo, read-out: A431 EGFR WT IC50
Procedure: A431 cells, purchased from ATCC.
1) A431 cells were inoculated in a 384-well culture plate at a density of 800 cells per well, 30 μL per well, placed in a cell incubator, and cultured for 24 hours (37° C., 5% CO2).
(§7) 3) 30 nL of gradient diluted compound was transferred into the 384-well experimental plate using Echo 550 (Labcyte) at a DMSO final concentration of 0.1%, and the culture plate was incubated in a cell incubator for 72 hours (37° C., 5% CO2).
(§8) 4) 30 μL of Cell Titer-Glo reagent was added to each well and left for 30 minutes at room temperature and protected from light.
(§9) 5) Envision microplate reader (PerkinElmer) detected chemiluminescence signals.
(§10) 6) GraphPad Prism 8 software was used for data analysis to obtain the IC50 of the compounds of the present disclosure and the positive control.

[3] = biological target: Ba/F3 De119/T790M/C797S EGFR triple mutant cell line (Homo sapiens, UniProt P00533, T790M/C797S, cells depend on it, form not given); assay: Cell proliferation inhibition experiment (CellTiter-Glo), Ba/F3 De119/T790M/C797S; format: cell-based; details: Ba/F3 Del19/T790M/C797S EGFR triple mutant cells, 72 hours, Cell Titer-Glo; read-out: Ba/F3 (Del19/T790M/C797S) IC50
Ba/F3 De119/T790M/C797S EGFR triple mutant cell line, sequence (P00533 with tags, fused parts or gaps DEL746-750/T790M/C797S, form open): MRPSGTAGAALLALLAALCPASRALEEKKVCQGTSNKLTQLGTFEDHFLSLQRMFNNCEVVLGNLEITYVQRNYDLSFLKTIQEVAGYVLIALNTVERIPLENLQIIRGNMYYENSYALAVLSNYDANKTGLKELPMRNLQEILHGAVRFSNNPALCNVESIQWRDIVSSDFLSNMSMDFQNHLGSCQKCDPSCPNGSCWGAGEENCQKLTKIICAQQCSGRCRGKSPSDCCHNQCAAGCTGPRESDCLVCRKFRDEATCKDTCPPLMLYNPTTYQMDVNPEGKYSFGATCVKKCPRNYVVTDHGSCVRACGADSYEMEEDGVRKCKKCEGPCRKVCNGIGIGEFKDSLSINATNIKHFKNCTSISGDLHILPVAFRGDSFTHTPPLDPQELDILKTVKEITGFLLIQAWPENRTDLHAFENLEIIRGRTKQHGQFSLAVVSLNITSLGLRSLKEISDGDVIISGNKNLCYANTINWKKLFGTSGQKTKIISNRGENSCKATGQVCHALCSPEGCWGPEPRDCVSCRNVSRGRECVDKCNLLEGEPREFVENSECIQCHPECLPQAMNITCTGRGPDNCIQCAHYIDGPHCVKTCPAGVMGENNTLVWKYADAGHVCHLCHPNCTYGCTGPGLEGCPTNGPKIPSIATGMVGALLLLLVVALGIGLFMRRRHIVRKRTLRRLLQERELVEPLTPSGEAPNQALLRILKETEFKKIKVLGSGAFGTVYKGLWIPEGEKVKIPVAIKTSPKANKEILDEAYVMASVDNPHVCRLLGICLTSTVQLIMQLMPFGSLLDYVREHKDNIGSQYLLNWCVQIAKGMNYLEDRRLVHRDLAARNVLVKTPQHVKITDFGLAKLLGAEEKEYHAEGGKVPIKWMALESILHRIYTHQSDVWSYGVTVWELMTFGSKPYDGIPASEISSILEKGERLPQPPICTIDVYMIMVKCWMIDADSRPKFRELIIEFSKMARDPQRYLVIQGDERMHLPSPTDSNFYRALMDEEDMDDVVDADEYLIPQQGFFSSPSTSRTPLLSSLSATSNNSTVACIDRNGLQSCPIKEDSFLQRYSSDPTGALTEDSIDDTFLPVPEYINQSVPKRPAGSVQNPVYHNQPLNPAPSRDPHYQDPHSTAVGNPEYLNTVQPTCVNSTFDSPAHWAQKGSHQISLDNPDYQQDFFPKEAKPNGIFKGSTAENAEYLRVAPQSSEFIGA
Procedure: as §7, §8, §9, §10

[4] = biological target: Ba/F3 L858R/T790M/C797S EGFR triple mutant cell line (Homo sapiens, UniProt P00533, T790M/C797S/L858R, cells depend on it); assay: Cell proliferation inhibition experiment (CellTiter-Glo), Ba/F3 L858R/T790M/C797S; format: cell-based; details: 72 hours, Cell Titer-Glo, read-out: Ba/F3 (L858R/T790M/C797S) IC50
Ba/F3 L858R/T790M/C797S EGFR triple mutant cell line, sequence (P00533 whole entry T790M/C797S/L858R): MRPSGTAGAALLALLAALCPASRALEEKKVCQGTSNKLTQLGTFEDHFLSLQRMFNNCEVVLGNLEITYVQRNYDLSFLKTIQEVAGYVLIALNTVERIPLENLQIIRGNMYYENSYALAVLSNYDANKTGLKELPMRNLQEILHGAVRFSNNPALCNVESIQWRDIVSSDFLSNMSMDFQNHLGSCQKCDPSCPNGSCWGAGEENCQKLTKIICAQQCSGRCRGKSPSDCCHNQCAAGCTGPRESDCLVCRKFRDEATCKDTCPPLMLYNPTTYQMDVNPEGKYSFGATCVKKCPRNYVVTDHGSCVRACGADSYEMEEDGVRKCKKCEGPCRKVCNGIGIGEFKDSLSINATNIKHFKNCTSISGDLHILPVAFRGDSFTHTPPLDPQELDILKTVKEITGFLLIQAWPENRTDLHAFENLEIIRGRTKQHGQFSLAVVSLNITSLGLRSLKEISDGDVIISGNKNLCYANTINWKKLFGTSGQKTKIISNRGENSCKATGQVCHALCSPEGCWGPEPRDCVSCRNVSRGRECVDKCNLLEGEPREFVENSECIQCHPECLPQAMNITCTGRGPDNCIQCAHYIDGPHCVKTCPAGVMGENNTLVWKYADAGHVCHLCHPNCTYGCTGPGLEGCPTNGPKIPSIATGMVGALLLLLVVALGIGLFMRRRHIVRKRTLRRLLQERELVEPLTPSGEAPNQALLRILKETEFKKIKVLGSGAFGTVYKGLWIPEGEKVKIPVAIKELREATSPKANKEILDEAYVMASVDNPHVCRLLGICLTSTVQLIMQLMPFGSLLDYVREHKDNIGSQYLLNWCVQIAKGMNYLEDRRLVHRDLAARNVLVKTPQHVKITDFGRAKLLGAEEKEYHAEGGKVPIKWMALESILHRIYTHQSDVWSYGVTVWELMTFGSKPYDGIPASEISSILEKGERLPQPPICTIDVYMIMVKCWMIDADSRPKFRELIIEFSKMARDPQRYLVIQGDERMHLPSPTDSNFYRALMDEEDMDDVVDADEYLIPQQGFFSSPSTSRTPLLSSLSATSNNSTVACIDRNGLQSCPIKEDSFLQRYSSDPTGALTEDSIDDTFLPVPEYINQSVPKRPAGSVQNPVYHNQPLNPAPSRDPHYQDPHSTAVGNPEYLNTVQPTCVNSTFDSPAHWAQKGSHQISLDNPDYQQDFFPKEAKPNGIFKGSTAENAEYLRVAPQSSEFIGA
Procedure: as §7, §8, §9, §10

T1 sequence (P00533 25-1210): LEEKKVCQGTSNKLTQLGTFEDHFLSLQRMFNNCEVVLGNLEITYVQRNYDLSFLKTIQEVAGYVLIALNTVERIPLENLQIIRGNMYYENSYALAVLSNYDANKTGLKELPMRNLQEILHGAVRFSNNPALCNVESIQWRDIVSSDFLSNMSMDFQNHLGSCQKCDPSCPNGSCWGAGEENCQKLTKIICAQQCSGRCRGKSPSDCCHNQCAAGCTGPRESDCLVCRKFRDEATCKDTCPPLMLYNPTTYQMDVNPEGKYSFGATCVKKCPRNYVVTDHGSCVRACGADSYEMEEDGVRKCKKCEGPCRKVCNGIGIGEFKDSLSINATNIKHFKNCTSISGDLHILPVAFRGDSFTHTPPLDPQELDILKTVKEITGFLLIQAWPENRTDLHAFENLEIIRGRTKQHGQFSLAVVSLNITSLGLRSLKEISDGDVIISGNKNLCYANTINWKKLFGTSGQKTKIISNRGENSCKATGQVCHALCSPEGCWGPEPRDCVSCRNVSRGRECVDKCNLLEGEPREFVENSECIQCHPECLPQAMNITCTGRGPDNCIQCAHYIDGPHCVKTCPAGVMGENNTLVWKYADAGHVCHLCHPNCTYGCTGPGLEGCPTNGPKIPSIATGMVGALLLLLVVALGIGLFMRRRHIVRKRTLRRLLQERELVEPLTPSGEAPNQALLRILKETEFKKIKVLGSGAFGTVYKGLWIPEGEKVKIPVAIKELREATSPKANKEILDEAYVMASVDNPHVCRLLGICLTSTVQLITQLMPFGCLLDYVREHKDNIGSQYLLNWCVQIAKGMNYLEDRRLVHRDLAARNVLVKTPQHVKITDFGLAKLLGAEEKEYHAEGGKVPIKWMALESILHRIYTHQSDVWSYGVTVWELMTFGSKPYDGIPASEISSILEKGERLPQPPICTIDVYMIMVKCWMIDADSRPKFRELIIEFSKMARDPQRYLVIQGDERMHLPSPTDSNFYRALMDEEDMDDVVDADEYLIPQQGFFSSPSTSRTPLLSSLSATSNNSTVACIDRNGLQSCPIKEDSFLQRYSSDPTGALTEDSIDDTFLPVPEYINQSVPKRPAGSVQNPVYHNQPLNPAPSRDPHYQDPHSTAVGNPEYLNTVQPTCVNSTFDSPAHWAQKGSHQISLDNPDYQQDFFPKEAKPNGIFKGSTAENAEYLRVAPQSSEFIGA

| Structure (SMILES) | IC50 (wild-type EGFR) | IC50 [1] | IC50 ([2]; 72 hours) | GI50 [3] | GI50 [4] | IC50 ([2]; Homo sapiens, A-431, 72 h) |
| --- | --- | --- | --- | --- | --- | --- |
| COc1cc(N2CCC(N3CCN(CC(F)F)CC3)CC2)c(-c2cnn(C)c2)cc1Nc1ncc(Br)c(Nc2ccc3nccnc3c2P(C)(C)=O)n1 [compound 186] | 1.19 nM | 0.37 nM |  | 1.39 nM | 3.47 nM | 62 nM |
| COc1ncc(-c2cnn(C)c2)cc1Nc1ncc(Br)c(Nc2ccc3nccnc3c2P(C)(C)=O)n1 [compound 30] | 55.7 nM | 1.01 nM |  | 12.1 nM | 62.6 nM | 284 nM |
| COc1cc(N2CCOCC2)c(-c2cnn(C)c2)cc1Nc1ncc(Br)c(Nc2ccc3nccnc3c2N(C)S(C)(=O)=O)n1 [compound 171, N-(6-((5-bromo-2-((2-methoxy-5-(1-methyl-1H-pyrazol-4-yl)-4-morpholinophenyl)amino)pyrimidin-4-yl)amino)quinoxalin-5-yl)-N-methylmethanesulfonamide] | 4.59 nM | 0.29 nM |  | 2.13 nM | 7.23 nM | 623 nM |
| COc1cc(N2CCOCC2)c(-c2cnn(C)c2)cc1Nc1ncc(Br)c(Nc2ccccc2NS(=O)(=O)C2CC2)n1 [compound 125] | 23.8 nM | 0.53 nM |  | 5.87 nM | 14.4 nM | 490 nM |
| COc1cc(N2CCC(OC(C)C)CC2)c(-c2cnn(C)c2)cc1Nc1ncc(Br)c(Nc2ccc3nccnc3c2P(C)(C)=O)n1 [compound 151] | 38.2 nM | 2.2 nM |  | 1.84 nM | 7.47 nM | 318 nM |
| COc1cc(N2CCC3CCN(CC4CC4)C3C2)c(-c2cnn(C)c2)cc1Nc1ncc(Br)c(Nc2ccc3nccnc3c2P(C)(C)=O)n1 (single isomer, unassigned) [234a] | 5.04 nM | 0.32 nM |  | 2.05 nM | 3.91 nM | 42.4 nM |
| COc1cc(N2CCN3CCOCC3C2)c(-c2cnn(C)c2)cc1Nc1ncc(Br)c(Nc2ccc3nccnc3c2P(C)(C)=O)n1 (stereo not shown) [compound 161] | 2.71 nM | 0.39 nM |  | 2.36 nM | 6.39 nM | 154 nM |
| COc1cc(N2CCOCC2)c(-c2cccs2)cc1Nc1ncc(Br)c(Nc2ccc3nccnc3c2P(C)(C)=O)n1 [compound 83] | 1000 nM | 3.95 nM |  | 34 nM | 58.9 nM | 2420 nM |
| COc1cc(N2C[C@@H](C)O[C@@H](C)C2)c(-c2cnn(C)c2)cc1Nc1ncc(Br)c(Nc2ccc3nccnc3c2P(C)(C)=O)n1 [compound 111] | 5.65 nM | 1.38 nM |  | 3.22 nM | 4.79 nM | 210 nM |
| COc1cc(N2CC(C)OC(C)C2)c(-c2cnn(C)c2)cc1Nc1ncc(Br)c(Nc2ccc3nccnc3c2P(C)(C)=O)n1 (single isomer, unassigned) [155b] | 21.6 nM | 0.8 nM | 213 nM | 1.63 nM | 7.55 nM |  |
| COc1cc(N2CC(C)OC(C)C2)c(-c2cnn(C)c2)cc1Nc1ncc(Br)c(Nc2cc3c(cc2P(C)(C)=O)CC3)n1 (racemic) [compound 137] | 170 nM | 9.81 nM | 1500 nM | 27.1 nM | 77.8 nM |  |
| COc1cc(S(C)(=O)=O)c(-c2cnn(C)c2)cc1Nc1ncc(Br)c(Nc2ccc3nccnc3c2P(C)(C)=O)n1 [compound 44] | 1560 nM | 22 nM |  | 93.5 nM |  | ≥ 5000 nM |
| COc1cnc(-c2cnn(C)c2)cc1Nc1ncc(C)c(Nc2ccc3nccnc3c2P(C)(C)=O)n1 [compound 53] | 87 nM | 3.6 nM |  | 62.2 nM |  | 294 nM |
| CN1CCOc2c(Nc3ncc(Br)c(Nc4ccc5nccnc5c4P(C)(C)=O)n3)cc(-c3cnn(C)c3)cc21 [compound 47] | 20.5 nM | 0.37 nM |  | 4.31 nM |  | 126 nM |
| COc1cc(N2CCC(N3CCOCC3)CC2)c(-c2cnn(C)c2)cc1Nc1ncc(Br)c(Nc2ccc3nccnc3c2P(C)(C)=O)n1 [compound 129] |  | 0.27 nM | 86.2 nM | 0.72 nM | 2.71 nM |  |

Now from value to compound:

| IC50 (wild-type EGFR) | IC50 [1] | IC50 ([2]; 72 hours) | GI50 [3] | GI50 [4] | IC50 ([2]; Homo sapiens, A-431, 72 h) | Structure (SMILES) |
| --- | --- | --- | --- | --- | --- | --- |
| 10.5 nM | 0.27 nM | 89 nM | 8.53 nM | 24.8 nM |  | COc1cc(N2CCN(CC3CC3)CC2)c(-c2cnn(C)c2)cc1Nc1ncc(Br)c(Nc2ccc3nccnc3c2P(C)(C)=O)n1 [compound 235] |
| 0.78 nM | 0.15 nM |  | 0.64 nM | 2.85 nM | 82.8 nM | COc1cc(N2CCC3(CCN(CCF)CC3)CC2)c(-c2cnn(C)c2)cc1Nc1ncc(Br)c(Nc2ccc3nccnc3c2P(C)(C)=O)n1 [compound 133, (6-((5-bromo-2-((4-(9-(2-fluoroethyl)-3,9-diazaspiro[5.5]undecan-3-yl)-2-methoxy-5-(1-methyl-1H-pyrazol-4-yl)phenyl)amino)pyrimidin-4-yl)amino)quinoxalin-5-yl)dimethylphosphine oxide] |
| 0.62 nM | 0.22 nM |  | 4.26 nM | 9.49 nM | 38 nM | COc1cc(N2CCC(OCCN(C)C)CC2)c(-c2cnn(C)c2)cc1Nc1ncc(Br)c(Nc2ccc3nccnc3c2P(C)(C)=O)n1 [compound 198] |
| 21.5 nM | 0.12 nM |  | 4.88 nM |  | 234 nM | CCn1cc(-c2cc(Nc3ncc(Br)c(Nc4ccc5nccnc5c4P(C)(C)=O)n3)c(OC)cc2N2CCOCC2)cn1 [compound 49] |
| 2.83 nM | 0.24 nM |  | 0.59 nM | 4.18 nM | 170 nM | COC[C@@H]1CN(c2cc(OC)c(Nc3ncc(Br)c(Nc4ccc5nccnc5c4P(C)(C)=O)n3)cc2-c2cnn(C)c2)CCO1 [compound 127] |
| 8.85 nM | 0.01 nM |  | 5.37 nM | 10.1 nM | 415 nM | COc1cc(N2CCOCC2)c(-c2cnn(C)c2)cc1Nc1ncc(Br)c(Nc2ccccc2NS(C)(=O)=O)n1 [Compound 80] |
| 1.66 nM | 0.12 nM |  | 1.1 nM | 1.08 nM | 32.1 nM | COc1cc(N2CCN(CC3COC3)CC2)c(-c2cnn(C)c2)cc1Nc1ncc(Br)c(Nc2ccc3nccnc3c2P(C)(C)=O)n1 [compound 219, (6-((5-Bromo-2-((2-methoxy-5-(1-methyl-1H-pyrazol-4-yl)-4-(4-(oxetan-3-ylmethyl)piperazin-1-yl)phenyl)amino)pyrimidin-4-yl)amino)quinoxalin-5-yl)dimethylphosphine oxide] |
| 17.4 nM | 0.17 nM |  | 5.91 nM | 19.2 nM | 303 nM | COc1cc(C2CCOCC2)c(-c2cnn(C)c2)cc1Nc1ncc(Br)c(Nc2ccc3nccnc3c2P(C)(C)=O)n1 [Compound 69] |
| 8.13 nM | 0.03 nM |  | 3.71 nM | 12.7 nM | 140 nM | COc1ccc(-c2cnn(C)c2)cc1Nc1ncc(Br)c(Nc2ccc3nccnc3c2P(C)(C)=O)n1 [compound 5] |
| 1.49 nM | 0.23 nM |  | 0.76 nM | 2.02 nM | 108 nM | COc1cc(N2CCN(C3CC3)CC2)c(-c2cnn(C)c2)cc1Nc1ncc(Br)c(Nc2ccc3nccnc3c2P(C)(C)=O)n1 [compound 102] |
| 5.81 nM | 0.12 nM |  | 3.76 nM | 7.76 nM | 66.4 nM | COc1cc(N2CC3CN(CCF)CC3C2)c(-c2cnn(C)c2)cc1Nc1ncc(Br)c(Nc2ccc3nccnc3c2P(C)(C)=O)n1 (stereo not shown) [compound 247, (6-((5-Bromo-2-((4-(5-(2-fluoroethyl)hexahydropyrrolo[3,4-c]pyrrol-2(1H)-yl)-2-methoxy-5-(1-methyl-1H-pyrazol-4-yl)phenyl)amino)pyrimidin-4-yl)amino)quinoxalin-5-yl)dimethylphosphine oxide] |
|  | 0.11 nM | 275 nM | 4.42 nM | 7.23 nM |  | COc1cc(N2CCC(N3CCOCC3)CC2)c(-c2cnn(C)c2)cc1Nc1ncc(Br)c(Nc2ccc3nccnc3c2P(C)(C)=O)n1 [compound 210] |
| 111 nM | 0.11 nM |  |  | 36.8 nM | 292 nM | Cn1cc(-c2cc(Nc3ncc(Br)c(Nc4ccc5nccnc5c4P(C)(C)=O)n3)c3c(c2N2CCOCC2)CCCO3)cn1 [compound 51] |

Reference: US20230219986A1, “NOVEL AMINOPYRIMIDINE EGFR INHIBITOR” (QILU PHARMACEUTICAL CO., LTD., priority 2020, published 2023)
